Laboratory results taken from patent US20260258038A1 (priority 2023, published 2026).

Key:
Phytophthora infestans = experiment: whole plant or invertebrate; assay type: in vivo; conditions: in Solanum lycopersicum, foliar, read-out: control of Phytophthora infestans (percent disease control compared to untreated)
Plasmopara viticola = experiment: whole plant or invertebrate; assay type: in vivo; conditions: foliar, read-out: control of Plasmopara viticola (percent disease control compared to untreated)
Pythium ultimum = Pythium ultimum / liquid culture (seedling damping off); assay type: cell-based; conditions: Globisporangium ultimum, liquid culture in PDB, 24° C., 2-3 days after application, read-out: control of Pythium ultimum (inhibition of growth, photometric)
Protocol: Pythium ultimum/Liquid Culture (Seedling Damping Off)
Mycelia fragments and oospores of a newly grown liquid culture of the fungus are directly mixed into nutrient broth (PDB potato dextrose broth). After placing a (DMSO) solution of test compound into a microtiter plate (96-well format), the nutrient broth containing the fungal mycelia/spore mixture is added. The test plates are incubated at 24° C. and the inhibition of growth is determined photometrically 2-3 days after application.

CCc1cc(N(C)C(=O)c2ccc(F)c(OC)c2)cn2c(-c3ccc(NC(=O)OC)nc3)cnc12 [Compound 57, methyl N-[5-[8-ethyl-6-[(4-fluoro-3-methoxy-benzoyl)-methyl-amino]imidazo[1,2-a]pyridin-3-yl]-2-pyridyl]carbamate]
≥ 80%: pest or weed control at 200 ppm (Phytophthora infestans) | pest or weed control at 200 ppm (Plasmopara viticola) | inhibition at 20 ppm (Pythium ultimum)

COC(=O)Nc1ccc(-c2cnc3c(C)cc(N(C)C(=O)c4ccc(F)cc4F)cn23)cn1 [Compound 54, methyl N-[5-[6-[(2,4-difluorobenzoyl)-methyl-amino]-8-methyl-imidazo[1,2-a]pyridin-3-yl]-2-pyridyl]carbamate]
≥ 80%: pest or weed control at 200 ppm (Phytophthora infestans) | pest or weed control at 200 ppm (Plasmopara viticola) | inhibition at 20 ppm (Pythium ultimum)

COC(=O)Nc1ccc(-c2cnc3c(C)cc(N(C)C(=O)c4cccc(OC)c4)cn23)cn1 [Compound 53, methyl N-[5-[6-[(3-methoxybenzoyl)-methyl-amino]-8-methyl-imidazo[1,2-a]pyridin-3-yl]-2-pyridyl]carbamate]
≥ 80%: pest or weed control at 200 ppm (Phytophthora infestans) | pest or weed control at 200 ppm (Plasmopara viticola) | inhibition at 20 ppm (Pythium ultimum)

COC(=O)Nc1ccc(-c2cnc3c(C)cc(N(C)C(=O)c4ccc(Cl)cc4)cn23)cn1 [Compound 49, methyl N-[5-[6-[(4-chlorobenzoyl)-methyl-amino]-8-methyl-imidazo[1,2-a]pyridin-3-yl]-2-pyridyl]carbamate]
≥ 80%: pest or weed control at 200 ppm (Phytophthora infestans) | pest or weed control at 200 ppm (Plasmopara viticola) | inhibition at 20 ppm (Pythium ultimum)

COC(=O)Nc1ccc(-c2cnc3c(C)cc(N(C)C(=O)c4ccc(C#N)cc4)cn23)cn1 [Compound 47, methyl N-[5-[6-[(4-cyanobenzoyl)-methyl-amino]-8-methyl-imidazo[1,2-a]pyridin-3-yl]-2-pyridyl]carbamate]
≥ 80%: pest or weed control at 200 ppm (Phytophthora infestans) | pest or weed control at 200 ppm (Plasmopara viticola) | inhibition at 20 ppm (Pythium ultimum)

CCOc1cc(C(=O)N(C)c2cc(C)c3ncc(-c4ccc(NC(=O)OC)nc4)n3c2)ccc1C#N [Compound 10, methyl N-[5-[6-[(4-cyano-3-ethoxy-benzoyl)-methyl-amino]-8-methyl-imidazo[1,2-a]pyridin-3-yl]-2-pyridyl]carbamate]
≥ 80%: pest or weed control at 200 ppm (Phytophthora infestans) | pest or weed control at 200 ppm (Plasmopara viticola) | inhibition at 20 ppm (Pythium ultimum)

COC(=O)Nc1ccc(-c2cnc3c(C4CC4)cc(N(C)C(=O)c4ccc(F)c(OC)c4)cn23)cn1 [Compound 56, methyl N-[5-[8-cyclopropyl-6-[(4-fluoro-3-methoxy-benzoyl)-methyl-amino]imidazo[1,2-a]pyridin-3-yl]-2-pyridyl]carbamate]
≥ 80%: pest or weed control at 200 ppm (Phytophthora infestans) | pest or weed control at 200 ppm (Plasmopara viticola) | inhibition at 20 ppm (Pythium ultimum)

COC(=O)Nc1ccc(-c2cnc3c(C)cc(N(C)C(=O)c4ccc(F)c(C)c4)cn23)cn1 [Compound 11, methyl N-[5-[6-[(4-fluoro-3-methyl-benzoyl)-methyl-amino]-8-methyl-imidazo[1,2-a]pyridin-3-yl]-2-pyridyl]carbamate]
≥ 80%: pest or weed control at 200 ppm (Phytophthora infestans) | pest or weed control at 200 ppm (Plasmopara viticola) | inhibition at 20 ppm (Pythium ultimum)

COC(=O)Nc1ccc(-c2cnc3c(C)cc(N(C)C(=O)c4ccc(F)cc4)cn23)cn1 [Compound 45, methyl N-[5-[6-[(4-fluorobenzoyl)-methyl-amino]-8-methyl-imidazo[1,2-a]pyridin-3-yl]-2-pyridyl]carbamate]
≥ 80%: pest or weed control at 200 ppm (Phytophthora infestans) | pest or weed control at 200 ppm (Plasmopara viticola) | inhibition at 20 ppm (Pythium ultimum)

COC(=O)Nc1ccc(-c2cnc3c(C)cc(N(C)C(=O)c4ccc(Cl)c(OC)c4)cn23)cn1 [Compound 1, methyl N-[5-[6-[(4-chloro-3-methoxy-benzoyl)-methyl-amino]-8-methyl-imidazo[1,2-a]pyridin-3-yl]-2-pyridyl]carbamate]
≥ 80%: pest or weed control at 200 ppm (Phytophthora infestans) | pest or weed control at 200 ppm (Plasmopara viticola) | inhibition at 20 ppm (Pythium ultimum)

COC(=O)Nc1ccc(-c2cnc3c(C)cc(N(C)C(=O)c4ccc(C#N)c(OC)c4)cn23)cn1 [Compound 5, methyl N-[5-[6-[(4-cyano-3-methoxy-benzoyl)-methyl-amino]-8-methyl-imidazo[1,2-a]pyridin-3-yl]-2-pyridyl]carbamate]
≥ 80%: pest or weed control at 200 ppm (Phytophthora infestans) | pest or weed control at 200 ppm (Plasmopara viticola) | inhibition at 20 ppm (Pythium ultimum)

COCN(C(=O)c1ccc(F)c(OC)c1)c1ccc2ncc(-c3ccc(NC(=O)OC)nc3)n2c1 [Compound 25, methyl N-[5-[6-[(4-fluoro-3-methoxy-benzoyl)-(methoxymethyl)amino]imidazo[1,2-a]pyridin-3-yl]-2-pyridyl]carbamate]
≥ 80%: pest or weed control at 200 ppm (Phytophthora infestans) | pest or weed control at 200 ppm (Plasmopara viticola) | inhibition at 20 ppm (Pythium ultimum)
